# Measurements taken from patent US20240109917A1 (ACTELION PHARMACEUTICALS LTD, priority 2020, published 2024).
# Read-outs that look alike come from different tables or passages of the source.
# Columns and labels:
# VEGFR2, unphosphorylated = VEGFR2, unphosphorylated (Homo sapiens (Human), UniProt P35968); assay: VEGFR ADP GLO Assay; assay type: biochemical
# PDGFRβ = PDGFRβ (Rattus norvegicus (Rat), UniProt Q05030); assay: PDGFRβ Cellular Assay (PDGFRb P-Y751 HTRF in A10 cells stimulated with PDGF-BB); assay type: cell-based
# Sequence of PDGFRβ (Q05030 32-1097): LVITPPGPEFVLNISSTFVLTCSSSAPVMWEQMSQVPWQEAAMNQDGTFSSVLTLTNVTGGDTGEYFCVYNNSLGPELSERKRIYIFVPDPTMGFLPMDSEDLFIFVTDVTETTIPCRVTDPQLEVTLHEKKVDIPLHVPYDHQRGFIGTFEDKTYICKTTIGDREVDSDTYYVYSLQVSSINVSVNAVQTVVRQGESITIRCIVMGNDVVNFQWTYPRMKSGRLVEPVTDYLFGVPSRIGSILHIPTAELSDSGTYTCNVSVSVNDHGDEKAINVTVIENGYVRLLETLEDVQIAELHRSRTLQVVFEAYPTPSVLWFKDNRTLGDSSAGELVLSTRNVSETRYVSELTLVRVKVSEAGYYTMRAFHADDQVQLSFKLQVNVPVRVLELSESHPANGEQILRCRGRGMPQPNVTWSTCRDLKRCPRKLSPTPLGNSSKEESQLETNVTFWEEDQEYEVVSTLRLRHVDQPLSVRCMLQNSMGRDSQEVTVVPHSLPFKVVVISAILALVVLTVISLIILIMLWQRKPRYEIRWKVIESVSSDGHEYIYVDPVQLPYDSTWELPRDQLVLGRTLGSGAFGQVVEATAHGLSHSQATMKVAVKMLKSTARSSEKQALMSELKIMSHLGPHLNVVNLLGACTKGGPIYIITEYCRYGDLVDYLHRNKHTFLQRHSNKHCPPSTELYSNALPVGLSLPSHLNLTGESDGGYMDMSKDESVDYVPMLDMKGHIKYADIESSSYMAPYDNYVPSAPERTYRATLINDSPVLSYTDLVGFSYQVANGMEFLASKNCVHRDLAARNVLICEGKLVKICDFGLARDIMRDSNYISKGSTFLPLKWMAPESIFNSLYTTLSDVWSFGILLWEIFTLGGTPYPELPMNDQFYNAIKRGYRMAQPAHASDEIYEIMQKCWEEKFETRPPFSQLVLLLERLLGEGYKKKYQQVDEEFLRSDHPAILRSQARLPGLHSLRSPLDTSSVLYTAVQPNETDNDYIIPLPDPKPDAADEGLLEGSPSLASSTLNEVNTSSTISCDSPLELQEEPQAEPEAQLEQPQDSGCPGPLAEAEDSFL
# In short: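 Rat A10 cells, plated overnight, were treated with compound for 3 hours, then stimulated with PDGF-BB (working stock 100 ng/mL in 10% FBS medium). After lysis, PDGFRβ P-Y751 was detected by HTRF.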
# Sequence of VEGFR2, unphosphorylated (P35968 20-1356): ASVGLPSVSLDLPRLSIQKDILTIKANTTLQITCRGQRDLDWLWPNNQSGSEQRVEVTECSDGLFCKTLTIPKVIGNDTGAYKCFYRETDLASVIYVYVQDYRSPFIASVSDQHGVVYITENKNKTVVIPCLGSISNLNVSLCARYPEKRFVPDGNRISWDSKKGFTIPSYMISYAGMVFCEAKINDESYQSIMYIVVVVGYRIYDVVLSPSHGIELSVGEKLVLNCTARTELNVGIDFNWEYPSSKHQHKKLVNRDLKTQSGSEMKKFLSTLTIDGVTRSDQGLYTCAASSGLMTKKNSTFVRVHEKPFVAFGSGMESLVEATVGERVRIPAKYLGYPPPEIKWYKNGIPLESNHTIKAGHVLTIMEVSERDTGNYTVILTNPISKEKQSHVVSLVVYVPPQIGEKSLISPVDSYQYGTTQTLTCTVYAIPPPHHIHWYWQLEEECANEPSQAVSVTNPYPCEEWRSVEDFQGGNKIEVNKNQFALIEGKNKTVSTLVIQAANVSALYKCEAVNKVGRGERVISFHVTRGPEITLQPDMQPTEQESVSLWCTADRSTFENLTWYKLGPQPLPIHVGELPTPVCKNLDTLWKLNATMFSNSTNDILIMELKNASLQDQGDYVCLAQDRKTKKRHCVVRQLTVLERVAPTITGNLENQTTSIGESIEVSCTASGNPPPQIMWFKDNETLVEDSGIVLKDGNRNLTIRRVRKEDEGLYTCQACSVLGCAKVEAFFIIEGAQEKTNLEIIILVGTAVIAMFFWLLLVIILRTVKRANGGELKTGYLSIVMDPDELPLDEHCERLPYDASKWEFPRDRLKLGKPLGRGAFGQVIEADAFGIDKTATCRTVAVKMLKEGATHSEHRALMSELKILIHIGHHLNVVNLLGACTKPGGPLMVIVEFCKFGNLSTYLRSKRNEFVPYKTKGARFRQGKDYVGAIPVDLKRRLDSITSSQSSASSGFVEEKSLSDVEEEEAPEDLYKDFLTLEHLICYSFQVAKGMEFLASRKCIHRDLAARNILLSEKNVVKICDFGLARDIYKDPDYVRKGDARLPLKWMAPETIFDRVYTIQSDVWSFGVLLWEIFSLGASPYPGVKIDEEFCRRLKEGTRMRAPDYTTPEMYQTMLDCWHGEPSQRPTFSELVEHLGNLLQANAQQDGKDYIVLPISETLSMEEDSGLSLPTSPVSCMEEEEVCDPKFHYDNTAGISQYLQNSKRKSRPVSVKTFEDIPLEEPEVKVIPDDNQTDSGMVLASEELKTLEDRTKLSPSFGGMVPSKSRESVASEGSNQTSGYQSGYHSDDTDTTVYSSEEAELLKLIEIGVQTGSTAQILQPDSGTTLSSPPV
Structure (SMILES),"IC50 (VEGFR2, unphosphorylated)",IC50 (PDGFRβ; read-out: PDGFR Cellular IC50),IC50 (PDGFRβ; PDGFR Cellular IC50)
"Cc1ncc(NC(=O)CC2CNC2)cc1NC(=O)c1cnn2cc(-c3cnn4c3CCC4)sc12 [Example 426, N-(5-(2-(azetidin-3-yl)acetamido)-2-methylpyridin-3-yl)-2-(5,6-dihydro-4H-pyrrolo[1,2-b]pyrazol-3-yl)pyrazolo[5,1-b]thiazole-7-carboxamide]",> 7500 nM,> 2000 nM,
"Cc1ncc(NC(=O)CN2CCC[C@H]2C)cc1NC(=O)c1cnn2cc(-c3nn(C)nc3C)sc12 [Example 443, (R)-2-(2,5-dimethyl-2H-1,2,3-triazol-4-yl)-N-(2-methyl-5-(2-(2-methylpyrrolidin-1-yl)acetamido)pyridin-3-yl)pyrazolo[5,1-b]thiazole-7-carboxamide]",> 7500 nM,3.9 nM,
"Cc1ncc(NC(=O)CN2CC(C)(C)C2)cc1NC(=O)c1cnn2cc(-c3c(C)nn(C4COC4)c3C)sc12 [Example 425, 2-(3,5-dimethyl-1-(oxetan-3-yl)-1H-pyrazol-4-yl)-N-(5-(2-(3,3-dimethylazetidin-1-yl)acetamido)-2-methylpyridin-3-yl)pyrazolo[5,1-b]thiazole-7-carboxamide]",> 7500 nM,,11.7 nM
"Cc1ncc(NC(=O)CN2CCCC2(C)C)cc1NC(=O)c1cnn2cc(-c3cccn(CCF)c3=O)sc12 [Example 449, N-(5-(2-(2,2-dimethylpyrrolidin-1-yl)acetamido)-2-methylpyridin-3-yl)-2-(1-(2-fluoroethyl)-2-oxo-1,2-dihydropyridin-3-yl)pyrazolo[5,1-b]thiazole-7-carboxamide]",> 7500 nM,10.6 nM,
"Cc1cc(C(=O)NCCN2CCCC23CC3)sc1NC(=O)c1cnn2cc(-c3cnn(C)c3)sc12 [Example 37, N-(5-((2-(4-azaspiro[2.4]heptan-4-yl)ethyl)carbamoyl)-3-methylthiophen-2-yl)-2-(1-methyl-1H-pyrazol-4-yl)pyrazolo[5,1-b]thiazole-7-carboxamide]",> 7500 nM,11.2 nM,
"Cc1ncc(NC(=O)CN2CCC(C)C2)cc1NC(=O)c1cnn2cc(-c3cn(C)nc3C)sc12 (centres unmarked) [Example 446, 2-(1,3-Dimethyl-1H-pyrazol-4-yl)-N-(2-methyl-5-(2-(3-methylpyrrolidin-1-yl)acetamido)pyridin-3-yl)pyrazolo[5,1-b]thiazole-7-carboxamide]",> 7500 nM,3 nM,
"COc1ccncc1-c1cn2ncc(C(=O)Nc3cc(NC(=O)CN4CC(C)(C)C4)cnc3C)c2s1 [Example 40, N-(5-(2-(3,3-dimethylazetidin-1-yl)acetamido)-2-methylpyridin-3-yl)-2-(4-methoxypyridin-3-yl)pyrazolo[5,1-b]thiazole-7-carboxamide]",6180 nM,2 nM,
"COCCn1cc(-c2cn3ncc(C(=O)Nc4cc(NC(=O)CCN5CCCC5(C)C)cnc4C)c3s2)cn1 [Example 41, N-(5-(3-(2,2-dimethylpyrrolidin-1-yl)propanamido)-2-methylpyridin-3-yl)-2-(1-(2-methoxyethyl)-1H-pyrazol-4-yl)pyrazolo[5,1-b]thiazole-7-carboxamide]",> 7500 nM,10 nM,
"Cc1ncc(NC(=O)CN2CC(C)(C)C2)cc1NC(=O)c1cnn2cc(-c3cnn4c3OCCC4)sc12 [Example 39, 2-(6,7-dihydro-5H-pyrazolo[5,1-b][1,3]oxazin-3-yl)-N-(5-(2-(3,3-dimethylazetidin-1-yl)acetamido)-2-methylpyridin-3-yl)pyrazolo[5,1-b]thiazole-7-carboxamide]",2040 nM,2 nM,
"COCCn1cc(-c2cn3ncc(C(=O)Nc4cc(NC(=O)C[C@@H]5CCN(C(C)C)C5)cnc4C)c3s2)cn1 [Example 466, (S)—N-(5-(2-(1-isopropylpyrrolidin-3-yl)acetamido)-2-methylpyridin-3-yl)-2-(1-(2-methoxyethyl)-1H-pyrazol-4-yl)pyrazolo[5,1-b]thiazole-7-carboxamide]",> 7500 nM,350 nM,
"Cc1ncc(NC(=O)CC2CN(C)C2)cc1NC(=O)c1cnn2cc(-c3cnn4c3CCC4)sc12 [Example 468, 2-(5,6-dihydro-4H-pyrrolo[1,2-b]pyrazol-3-yl)-N-(2-methyl-5-(2-(1-methylazetidin-3-yl)acetamido)pyridin-3-yl)pyrazolo[5,1-b]thiazole-7-carboxamide]",> 7500 nM,2000 nM,
"CCCNCC(=O)Nc1cnc(C)c(NC(=O)c2cnn3cc(-c4cnn5c4OCCC5)sc23)c1 [Example 455, 2-(6,7-dihydro-5H-pyrazolo[5,1-b][1,3]oxazin-3-yl)-N-(2-methyl-5-(2-(propylamino)acetamido)pyridin-3-yl)pyrazolo[5,1-b]thiazole-7-carboxamide]",> 7500 nM,,15 nM
"Cc1ncc(NC(=O)CN2CCC23CCC3)cc1NC(=O)c1cnn2cc(-c3cnn4c3OCCC4)sc12 [Example 408, N-(5-(2-(1-azaspiro[3.3]heptan-1-yl)acetamido)-2-methylpyridin-3-yl)-2-(6,7-dihydro-5H-pyrazolo[5,1-b][1,3]oxazin-3-yl)pyrazolo[5,1-b]thiazole-7-carboxamide]",> 7500 nM,1.7 nM,
"Cc1ncc(NC(=O)CN2CCC[C@@H]2C)cc1NC(=O)c1cnn2cc(-c3cnn4c3COCC4)sc12 [Example 473, (S)-2-(6,7-dihydro-4H-pyrazolo[5,1-c][1,4]oxazin-3-yl)-N-(2-methyl-5-(2-(2-methylpyrrolidin-1-yl)acetamido)pyridin-3-yl)pyrazolo[5,1-b]thiazole-7-carboxamide]",> 7500 nM,5.3 nM,
"Cc1ncc(NC(=O)CC2CN(C)C2)cc1NC(=O)c1cnn2cc(-c3cnn4c3CCC4)sc12 [Example 427, 2-(5,6-dihydro-4H-pyrrolo[1,2-b]pyrazol-3-yl)-N-(2-methyl-5-(2-(1-methylazetidin-3-yl)acetamido)pyridin-3-yl)pyrazolo[5,1-b]thiazole-7-carboxamide]",> 7500 nM,> 2000 nM,
"Cc1ncc(C(=O)NCCN2CCCC23CCC3)cc1NC(=O)c1cnn2cc(-c3cnn4c3COCC4)sc12 [Example 472, N-(5-((2-(5-azaspiro[3.4]octan-5-yl)ethyl)carbamoyl)-2-methylpyridin-3-yl)-2-(6,7-dihydro-4H-pyrazolo[5,1-c][1,4]oxazin-3-yl)pyrazolo[5,1-b]thiazole-7-carboxamide]",> 7500 nM,5.4 nM,
"Cc1ncc(C(=O)NCCN2CCCC23CCC3)cc1NC(=O)c1cnn2cc(-c3cnn4c3CCC4)sc12 [Example 461, N-(5-((2-(5-azaspiro[3.4]octan-5-yl)ethyl)carbamoyl)-2-methylpyridin-3-yl)-2-(5,6-dihydro-4H-pyrrolo[1,2-b]pyrazol-3-yl)pyrazolo[5,1-b]thiazole-7-carboxamide]",3350 nM,2.1 nM,
"Cc1ncc(NC(=O)CN2CCC3(CC3)C2)cc1NC(=O)c1cnn2cc(-c3cnn4c3COCC4)sc12 [Example 474, N-(5-(2-(5-azaspiro[2.4]heptan-5-yl)acetamido)-2-methylpyridin-3-yl)-2-(6,7-dihydro-4H-pyrazolo[5,1-c][1,4]oxazin-3-yl)pyrazolo[5,1-b]thiazole-7-carboxamide]",> 7500 nM,3.9 nM,
"COCCn1cc(-c2cn3ncc(C(=O)Nc4cc(NC(=O)CCC5CCCN5C(C)C)cnc4C)c3s2)cn1 (centres unmarked) [Example 463, N-(5-(3-(1-isopropylpyrrolidin-2-yl)propanamido)-2-methylpyridin-3-yl)-2-(1-(2-methoxyethyl)-1H-pyrazol-4-yl)pyrazolo[5,1-b]thiazole-7-carboxamide]",> 7500 nM,782 nM,
"Cc1ncc(NC(=O)NCCN2CCCC2(C)C)cc1NC(=O)c1cnn2cc(-c3cnn(C)c3)sc12 [Example 38, N-(5-(3-(2-(2,2-dimethylpyrrolidin-1-yl)ethyl)ureido)-2-methyl-pyridin-3-yl)-2-(1-methyl-1H-pyrazol-4-yl)pyrazolo[5,1-b]thiazole-7-carboxamide]",> 7500 nM,3000 nM,
"Cc1cc(C(=O)NCCN2CCCC2(C)C)sc1NC(=O)c1cnn2cc(-c3cccnc3)sc12 [Example 36, N-(5-((2-(2,2-dimethylpyrrolidin-1-yl)ethyl)carbamoyl)-3-methylthiophen-2-yl)-2-(pyridin-3-yl)pyrazolo[5,1-b]thiazole-7-carboxamide]",> 7500 nM,9 nM,
"Cc1ncc(NC(=O)CN2CC3(CCCCO3)C2)cc1NC(=O)c1cnn2cc(-c3cnn4c3OCCC4)sc12 [Example 423, N-(5-(2-(5-oxa-2-azaspiro[3.5]nonan-2-yl)acetamido)-2-methylpyridin-3-yl)-2-(6,7-dihydro-5H-pyrazolo[5,1-b][1,3]oxazin-3-yl)pyrazolo[5,1-b]thiazole-7-carboxamide]",> 7500 nM,15.8 nM,
"Cc1ncc(NC(=O)CN2CC(C)(C)C2)cc1NC(=O)c1cnn2cc(-c3cccnc3OC(F)(F)F)sc12 [Example 437, N-(5-(2-(3,3-dimethylazetidin-1-yl)acetamido)-2-methylpyridin-3-yl)-2-(2-(trifluoromethoxy)pyridin-3-yl)pyrazolo[5,1-b]thiazole-7-carboxamide]",> 7500 nM,6 nM,
"Cc1ncc(NC(=O)CN2CCCC2(C)C)cc1NC(=O)c1cnn2cc(-c3cnn(C(C)(C)CO)c3)sc12 [Example 457, N-(5-(2-(2,2-dimethylpyrrolidin-1-yl)acetamido)-2-methylpyridin-3-yl)-2-(1-(1-hydroxy-2-methylpropan-2-yl)-1H-pyrazol-4-yl)pyrazolo[5,1-b]thiazole-7-carboxamide]",> 7500 nM,4 nM,
"Cc1ncc(NC(=O)CN2CCC23CCC3)cc1NC(=O)c1cnn2cc(-c3cnn4c3COCC4)sc12 [Example 475, N-(5-(2-(1-azaspiro[3.3]heptan-1-yl)acetamido)-2-methylpyridin-3-yl)-2-(6,7-dihydro-4H-pyrazolo[5,1-c][1,4]oxazin-3-yl)pyrazolo[5,1-b]thiazole-7-carboxamide]",> 7500 nM,2.3 nM,
